Laboratory results reported in patent publication US11427558B1, “Indazoles and azaindazoles as LRRK2 inhibitors” (ESCAPE Bio, Inc., priority 2019, dated 2022).

Assays:
[1] = molecular target: Recombinant wild type LRRK2 protein (Homo sapiens (Human), UniProt Q5S007); experiment: LRRK2 kinase activity, LanthaScreen TR-FRET assay (wild type); assay type: biochemical; conditions: LRRKtide 400 nM, 25 μM ATP, 60 min; read-out: LRRK2 WT IC50
Summary of the method: (§1)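 Recombinant human wild-type or G2019S LRRK2 phosphorylated fluorescein-labelled LRRKtide (ERM-based) with ATP and serially diluted compound for 60 min at room temperature.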

[2] = molecular target: Recombinant G2019S-LRRK2 protein (Homo sapiens (Human), UniProt Q5S007, G2019S); experiment: LRRK2 kinase activity, LanthaScreen TR-FRET assay (G2019S); assay type: biochemical; conditions: LRRKtide 400 nM, 25 μM ATP, 60 min
Sequence of Recombinant G2019S-LRRK2 protein (Q5S007 whole entry G2019S): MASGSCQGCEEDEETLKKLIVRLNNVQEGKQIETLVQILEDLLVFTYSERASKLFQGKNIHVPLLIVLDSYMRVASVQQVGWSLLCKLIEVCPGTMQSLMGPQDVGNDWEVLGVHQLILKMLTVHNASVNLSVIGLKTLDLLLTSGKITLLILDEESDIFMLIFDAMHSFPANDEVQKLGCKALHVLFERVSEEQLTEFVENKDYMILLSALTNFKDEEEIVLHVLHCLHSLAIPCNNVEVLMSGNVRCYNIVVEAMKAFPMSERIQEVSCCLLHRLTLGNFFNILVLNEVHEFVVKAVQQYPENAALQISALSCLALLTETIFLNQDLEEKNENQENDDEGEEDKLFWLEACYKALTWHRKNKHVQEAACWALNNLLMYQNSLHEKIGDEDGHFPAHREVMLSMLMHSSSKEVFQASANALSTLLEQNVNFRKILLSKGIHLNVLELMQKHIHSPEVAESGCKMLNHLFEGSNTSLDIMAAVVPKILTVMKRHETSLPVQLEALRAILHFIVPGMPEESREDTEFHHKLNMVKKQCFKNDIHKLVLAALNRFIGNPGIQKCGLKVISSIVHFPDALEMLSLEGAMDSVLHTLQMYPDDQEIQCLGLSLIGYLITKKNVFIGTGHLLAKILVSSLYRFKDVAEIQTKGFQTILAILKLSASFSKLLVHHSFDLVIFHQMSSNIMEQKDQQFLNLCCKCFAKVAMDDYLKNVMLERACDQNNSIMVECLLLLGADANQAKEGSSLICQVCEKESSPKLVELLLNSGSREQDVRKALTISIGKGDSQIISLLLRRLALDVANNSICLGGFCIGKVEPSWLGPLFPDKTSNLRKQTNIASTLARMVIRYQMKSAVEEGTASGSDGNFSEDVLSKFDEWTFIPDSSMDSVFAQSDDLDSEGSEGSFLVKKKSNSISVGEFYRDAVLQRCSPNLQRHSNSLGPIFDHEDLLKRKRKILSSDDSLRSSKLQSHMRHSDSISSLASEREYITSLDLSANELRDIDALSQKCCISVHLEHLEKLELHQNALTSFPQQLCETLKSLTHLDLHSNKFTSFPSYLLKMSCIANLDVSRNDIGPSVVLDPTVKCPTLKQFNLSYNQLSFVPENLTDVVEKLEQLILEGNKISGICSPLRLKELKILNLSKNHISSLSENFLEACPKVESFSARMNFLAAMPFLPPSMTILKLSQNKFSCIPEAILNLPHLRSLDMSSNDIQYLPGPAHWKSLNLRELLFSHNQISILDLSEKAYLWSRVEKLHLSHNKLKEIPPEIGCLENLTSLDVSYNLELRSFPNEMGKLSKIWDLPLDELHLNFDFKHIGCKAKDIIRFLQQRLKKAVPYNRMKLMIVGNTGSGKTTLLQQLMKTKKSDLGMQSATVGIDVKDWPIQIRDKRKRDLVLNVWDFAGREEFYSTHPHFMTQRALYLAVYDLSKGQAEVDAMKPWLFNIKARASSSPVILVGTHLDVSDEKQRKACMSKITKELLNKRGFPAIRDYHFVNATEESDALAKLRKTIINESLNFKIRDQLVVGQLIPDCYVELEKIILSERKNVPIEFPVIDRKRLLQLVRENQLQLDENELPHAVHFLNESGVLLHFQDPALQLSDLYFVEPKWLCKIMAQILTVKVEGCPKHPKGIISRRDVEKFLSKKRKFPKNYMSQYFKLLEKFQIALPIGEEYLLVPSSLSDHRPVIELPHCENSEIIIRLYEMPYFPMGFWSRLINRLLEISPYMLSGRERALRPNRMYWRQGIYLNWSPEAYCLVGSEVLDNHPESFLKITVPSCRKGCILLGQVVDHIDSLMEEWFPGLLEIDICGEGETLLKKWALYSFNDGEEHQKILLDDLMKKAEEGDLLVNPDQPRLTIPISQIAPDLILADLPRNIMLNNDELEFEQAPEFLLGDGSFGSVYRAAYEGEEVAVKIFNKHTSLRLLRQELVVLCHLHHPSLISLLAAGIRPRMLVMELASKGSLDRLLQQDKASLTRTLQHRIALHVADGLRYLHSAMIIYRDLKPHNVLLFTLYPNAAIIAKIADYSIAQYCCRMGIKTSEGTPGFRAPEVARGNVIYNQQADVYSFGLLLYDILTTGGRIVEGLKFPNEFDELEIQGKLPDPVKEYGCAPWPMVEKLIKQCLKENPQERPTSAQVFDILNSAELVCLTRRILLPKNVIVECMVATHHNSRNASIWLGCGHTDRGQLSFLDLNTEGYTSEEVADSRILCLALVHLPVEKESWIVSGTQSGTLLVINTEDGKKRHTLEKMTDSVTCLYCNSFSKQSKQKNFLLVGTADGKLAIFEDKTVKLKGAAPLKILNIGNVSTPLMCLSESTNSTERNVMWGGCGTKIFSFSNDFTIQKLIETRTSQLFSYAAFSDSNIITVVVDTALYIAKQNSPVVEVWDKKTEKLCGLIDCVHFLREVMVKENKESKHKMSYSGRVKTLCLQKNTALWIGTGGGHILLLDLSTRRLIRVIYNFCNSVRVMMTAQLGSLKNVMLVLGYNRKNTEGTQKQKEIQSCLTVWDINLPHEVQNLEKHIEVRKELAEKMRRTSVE
Summary of the method: as §1

Sequence of Recombinant wild type LRRK2 protein (Q5S007 whole entry): as the sequence (Q5S007 whole entry G2019S) above, with S2019G counted along it

SMILES | IC50 [1] | IC50 [2]
Cc1c(C#N)cnc(C(=O)Nc2ccc3[nH]nc(C4CC4(C)C)c3c2)c1C (centres unmarked) [Example 257, 5-Cyano-N-(3-(2,2-dimethylcyclopropyl)-1H-indazol-5-yl)-3,4-dimethylpicolinamide] | 1000 to 10000 nM | 1000 to 10000 nM
COc1cc(C(=O)Nc2ccc3[nH]nc(-c4cnco4)c3c2)nc(C)c1C#N [Example 258, 5-Cyano-4-methoxy-6-methyl-N-(3-(oxazol-5-yl)-1H-indazol-5-yl)picolinamide] | 1000 to 10000 nM | < 100 nM
Cc1c(C#N)cnc(C(=O)Nc2ccc3[nH]nc(C=C4CCN(C(=O)OC(C)(C)C)CC4)c3c2)c1C [Example 259, tert-butyl 4-((5-(5-Cyano-3,4-dimethylpicolinamido)-1H-indazol-3-yl)methylene)piperidine-1-carboxylate] | > 10000 nM | > 10000 nM
Cc1c(C#N)cnc(C(=O)Nc2ccc3[nH]nc(C=C4CCNCC4)c3c2)c1C [Example 260, 5-Cyano-3,4-dimethyl-N-(3-(piperidin-4-ylidenemethyl)-1H-indazol-5-yl)picolinamide] | > 10000 nM | 1000 to 10000 nM
Cc1c(C#N)cnc(C(=O)Nc2ccc3[nH]nc(/C=C4/CCOC4)c3c2)c1C [Example 261, (Z)-5-Cyano-N-(3-((dihydrofuran-3(2H)-ylidene)methyl)-1H-indazol-5-yl)-3,4-dimethylpicolinamide] | 1000 to 10000 nM | < 100 nM
Cc1c(C#N)cnc(C(=O)Nc2ccc3[nH]nc(C=C4CCOCC4)c3c2)c1C [Example 262, 5-Cyano-3,4-dimethyl-N-(3-((tetrahydro-4H-pyran-4-ylidene)methyl)-1H-indazol-5-yl)picolinamide] | 1000 to 10000 nM | 1000 to 10000 nM
Cc1c(C#N)cnc(C(=O)Nc2ccc3[nH]nc(C=C4COC4)c3c2)c1C [Example 263, 5-Cyano-3,4-dimethyl-N-(3-(oxetan-3-ylidenemethyl)-1H-indazol-5-yl)picolinamide] | 1000 to 10000 nM | 100 to 1000 nM
COCc1n[nH]c2ccc(NC(=O)c3ncc(C#N)c(C)c3C)cc12 [Example 264, 5-Cyano-N-(3-(methoxymethyl)-1H-indazol-5-yl)-3,4-dimethylpicolinamide] | 1000 to 10000 nM | 100 to 1000 nM
Cc1c(C#N)cnc(C(=O)Nc2ccc3[nH]nc(C4CC4C(F)(F)F)c3c2)c1C (centres unmarked) [Example 265, 5-Cyano-3,4-dimethyl-N-(3-(2-(trifluoromethyl)cyclopropyl)-1H-indazol-5-yl)picolinamide] | 1000 to 10000 nM | 100 to 1000 nM
Cc1c(C#N)cnc(C(=O)Nc2ccc3[nH]nc(/C=C/C(F)(F)F)c3c2)c1C [Example 266, (E)-5-Cyano-3,4-dimethyl-N-(3-(3,3,3-trifluoroprop-1-en-1-yl)-1H-indazol-5-yl)picolinamide] | 100 to 1000 nM | < 100 nM
C=C(C)c1n[nH]c2ccc(NC(=O)c3ncc(C#N)c(C)c3C)cc12 [Example 267, 5-Cyano-3,4-dimethyl-N-(3-(prop-1-en-2-yl)-1H-indazol-5-yl)picolinamide] | 100 to 1000 nM | < 100 nM
Cc1c(C#N)cnc(C(=O)Nc2ccc3[nH]nc(C4(C)CC4)c3c2)c1C [Example 268, 5-Cyano-3,4-dimethyl-N-(3-(1-methylcyclopropyl)-1H-indazol-5-yl)picolinamide] | 1000 to 10000 nM | 100 to 1000 nM
COC(C)c1n[nH]c2ccc(NC(=O)c3ncc(C#N)c(C)c3C)cc12 (centres unmarked) [Example 269, 5-Cyano-N-(3-(1-methoxyethyl)-1H-indazol-5-yl)-3,4-dimethylpicolinamide] | > 10000 nM | 1000 to 10000 nM
Cc1c(C(=O)Nc2ccc3[nH]nc(C(C)C)c3c2)nc(Cl)c(C#N)c1C [Example 270, 6-Chloro-5-cyano-N-(3-isopropyl-1H-indazol-5-yl)-3,4-dimethylpicolinamide] | < 100 nM | < 100 nM
CCc1n[nH]c2ccc(NC(=O)c3nc(Cl)c(C#N)c(C)c3C)cc12 [Example 271, 6-Chloro-5-cyano-N-(3-ethyl-1H-indazol-5-yl)-3,4-dimethylpicolinamide] | < 100 nM | < 100 nM
Cc1cc(C#N)cnc1C(=O)Nc1ccc2[nH]nc(-c3ccnnc3)c2c1 [Example 272, 5-Cyano-3-methyl-N-(3-(pyridazin-4-yl)-1H-indazol-5-yl)picolinamide] | 100 to 1000 nM | < 100 nM
Cc1cc(-c2n[nH]c3ccc(NC(=O)c4ncc(C#N)cc4C)cc23)cnn1 [Example 273, 5-Cyano-3-methyl-N-(3-(6-methylpyridazin-4-yl)-1H-indazol-5-yl)picolinamide] | 100 to 1000 nM | < 100 nM
C=C(C)c1c(C#N)cccc1C(=O)Nc1ccc2[nH]nc(C)c2c1 [Example 274, 3-Cyano-N-(3-methyl-1H-indazol-5-yl)-2-(prop-1-en-2-yl)benzamide] | 1000 to 10000 nM | < 100 nM
Cc1nc(C(=O)Nc2ccc3[nH]nc(C)c3c2)c(Cl)c(C)c1C#N [Example 275, 3-Chloro-5-cyano-4,6-dimethyl-N-(3-methyl-1H-indazol-5-yl)picolinamide] | 100 to 1000 nM | < 100 nM

SMILES | IC50 [1] | IC50 [2]
Cc1c(C#N)cnc(C(=O)Nc2ccc3[nH]nc(C=C4CCC4)c3c2)c1C [Example 276, 5-Cyano-N-(3-(cyclobutylidenemethyl)-1H-indazol-5-yl)-3,4-dimethylpicolinamide] | 100 to 1000 nM | < 100 nM
Cc1c(C#N)cnc(C(=O)Nc2ccc3[nH]nc(-c4ccnc(N5CCOCC5)c4)c3c2)c1C [Example 277, 5-Cyano-3,4-dimethyl-N-(3-(2-morpholinopyridin-4-yl)-1H-indazol-5-yl)picolinamide] | < 100 nM | < 100 nM
Cc1c(C(=O)Nc2ccc3[nH]nc(-c4ccnc(N5CCOCC5)c4)c3c2)nc(Cl)c(C#N)c1C [Example 278, 6-Chloro-5-cyano-3,4-dimethyl-N-(3-(2-morpholinopyridin-4-yl)-1H-indazol-5-yl)picolinamide] | < 100 nM | < 100 nM
CCc1cc(-c2n[nH]c3ccc(NC(=O)c4ncc(C#N)c(C)c4C)cc23)ccn1 [Example 279, 5-Cyano-N-(3-(2-ethylpyridin-4-yl)-1H-indazol-5-yl)-3,4-dimethylpicolinamide] | < 100 nM | < 100 nM
Cc1c(C#N)cnc(C(=O)Nc2ccc3[nH]nc(-c4cccn(C)c4=O)c3c2)c1C [Example 280, 5-Cyano-3,4-dimethyl-N-(3-(1-methyl-2-oxo-1,2-dihydropyridin-3-yl)-1H-indazol-5-yl)picolinamide] | 1000 to 10000 nM | 1000 to 10000 nM
Cc1c(C#N)cnc(C(=O)Nc2ccc3[nH]nc(/C=C/c4ccncc4)c3c2)c1C [Example 281, (E)-5-Cyano-3,4-dimethyl-N-(3-(2-(pyridin-4-yl)vinyl)-1H-indazol-5-yl)picolinamide] | < 100 nM | < 100 nM
C/C=C/c1n[nH]c2ccc(NC(=O)c3nc(Cl)c(C#N)c(C)c3C)cc12 [Example 282, (E)-6-chloro-5-cyano-3,4-dimethyl-N-(3-(prop-1-en-1-yl)-1H-indazol-5-yl)picolinamide] | < 100 nM | < 100 nM
Cc1nc(C(=O)Nc2ccc3[nH]nc(C4CC4)c3c2)c(Cl)c(C)c1C#N [Example 283, 3-chloro-5-cyano-N-(3-cyclopropyl-1H-indazol-5-yl)-4,6-dimethylpicolinamide] | 100 to 1000 nM | < 100 nM
CCc1n[nH]c2ccc(NC(=O)c3ncc(C#N)c(C(F)(F)F)c3C)cc12 [Example 284, 5-Cyano-N-(3-ethyl-1H-indazol-5-yl)-3-methyl-4-(trifluoromethyl)picolinamide] | 1000 to 10000 nM | < 100 nM
COc1n[nH]c2ccc(NC(=O)c3ncc(C#N)c(C(F)(F)F)c3C)cc12 [Example 285, 5-Cyano-N-(3-methoxy-1H-indazol-5-yl)-3-methyl-4-(trifluoromethyl)picolinamide] | 1000 to 10000 nM | < 100 nM
Cc1c(C(=O)Nc2ccc3[nH]nc(C4CC4)c3c2)ncc(C#N)c1C(F)(F)F [Example 286, 5-Cyano-N-(3-cyclopropyl-1H-indazol-5-yl)-3-methyl-4-(trifluoromethyl)picolinamide] | 1000 to 10000 nM | < 100 nM
COc1n[nH]c2ccc(NC(=O)c3nc(C)c(C#N)c(C)c3C)cc12 [Example 287, 5-Cyano-N-(3-methoxy-1H-indazol-5-yl)-3,4,6-trimethylpicolinamide] | 100 to 1000 nM | < 100 nM
Cc1cc(C#N)c(C(F)(F)F)nc1C(=O)Nc1ccc2[nH]nc(-c3cnco3)c2c1 [Example 288, 5-Cyano-3-methyl-N-(3-(oxazol-5-yl)-1H-indazol-5-yl)-6-(trifluoromethyl)picolinamide] | < 100 nM | < 100 nM
Cc1c(C(=O)Nc2ccc3[nH]nc(-c4cnco4)c3c2)ncc(C#N)c1C(F)(F)F [Example 289, 5-Cyano-3-methyl-N-(3-(oxazol-5-yl)-1H-indazol-5-yl)-4-(trifluoromethyl)picolinamide] | < 100 nM | < 100 nM
Cc1c(C(=O)Nc2ccc3[nH]nc(C#N)c3c2)nc(Cl)c(C#N)c1C [Example 290, 6-Chloro-5-cyano-N-(3-cyano-1H-indazol-5-yl)-3,4-dimethylpicolinamide] | < 100 nM | < 100 nM
Cc1c(C(=O)Nc2ccc3[nH]nc(C(F)F)c3c2)nc(Cl)c(C#N)c1C [Example 291, 6-Chloro-5-cyano-N-(3-(difluoromethyl)-1H-indazol-5-yl)-3,4-dimethylpicolinamide] | < 100 nM | < 100 nM
Cc1c(C#N)cnc(C(=O)Nc2ccc3[nH]nc(C(F)F)c3c2)c1C [Example 292, 5-Cyano-N-(3-(difluoromethyl)-1H-indazol-5-yl)-3,4-dimethylpicolinamide] | 1000 to 10000 nM | 100 to 1000 nM
Cc1c(C(=O)Nc2ccc3[nH]nc(C(F)(F)F)c3c2)nc(Cl)c(C#N)c1C [Example 293, 6-Chloro-5-cyano-3,4-dimethyl-N-(3-(trifluoromethyl)-1H-indazol-5-yl)picolinamide] | < 100 nM | < 100 nM
